Tests used:
HepG2 cells = settings: cell lines such as HepG2; cited from earlier work
[1] = test system: HepG2 cells; alpha 1-antichymotrypsin synthesis; settings: lower doses of IL-6; cited from earlier work
[2] = test system: HepG2 cells; alpha 1-antichymotrypsin synthesis; assay: alpha1-antichymotrypsin; assay type: cell-based, human; settings: HepG2, 6 h, 37°C
[3] = test system: HepG2 cells; C5 synthesis; assay: C5 synthesis in HepG2 cells; assay type: cell-based, human; settings: HepG2, 6 h, 37°C; 1 and 10 nM; Fig. 7
[4] = test system: HepG2 cells; albumin synthesis; assay: Albumin synthesis in HepG2 cells; assay type: cell-based, human; settings: for time at which decrease in albumin synthesis becomes evident: C5a or FMLP 10 nM, Fig. 6
[5] = test system: HepG2 cells; transferrin synthesis; assay: Transferrin synthesis in HepG2 cells; assay type: cell-based, human; settings: HepG2, 6 h, 37°C; 1 and 10 nM; Fig. 7
[6] = test system: HepG2 cells; complement Bf synthesis; assay: Complement Bf synthesis in HepG2 cells; assay type: cell-based, human; settings: HepG2, 6 h, 37°C; 1 and 10 nM; Fig. 7
[7] = test system: HepG2 cells; fibrinogen and C4 synthesis; assay: Fibrinogen and C4 synthesis in HepG2 cells; assay type: cell-based, human; settings: data not shown
[8] = test system: HepG2 cells; complement C3 synthesis; assay: C3 synthesis in HepG2 cells; assay type: cell-based, human; settings: for time at which increase in C3 synthesis becomes evident: C5a or FMLP 10 nM, HepG2, 37°C, Fig. 6; for effect on C3 synthesis: HepG2, 6 h, 37°C, 1 and 10 nM, Fig. 7
[9] = test system: HepG2 cells; serum amyloid A or C-reactive protein synthesis; assay: Serum amyloid A and C-reactive protein synthesis in HepG2 cells; assay type: cell-based, human; settings: data not shown
[10] = test system: HepG2 cells; acute phase protein synthesis; assay: Synthesis of acute phase proteins in HepG2 cells; assay type: cell-based, human; settings: for effect on C3 and albumin synthesis at higher concentrations: higher concentrations of chemotactic peptides, data not shown
neutrophils = settings: cited from earlier work
[11] = test system: HepG2 cells; alpha1-AT synthesis; assay: alpha1-antitrypsin; assay type: cell-based, human; settings: HepG2, 6 h, 37°C; 1 and 10 nM; Fig. 7
FMLPR in HepG2 cells = target: T1, FMLPR in HepG2 cells (Homo sapiens, UniProt P21462); assay: Binding of radioiodinated FMLP analogue to HepG2 cells
T1 sequence (P21462 1-350): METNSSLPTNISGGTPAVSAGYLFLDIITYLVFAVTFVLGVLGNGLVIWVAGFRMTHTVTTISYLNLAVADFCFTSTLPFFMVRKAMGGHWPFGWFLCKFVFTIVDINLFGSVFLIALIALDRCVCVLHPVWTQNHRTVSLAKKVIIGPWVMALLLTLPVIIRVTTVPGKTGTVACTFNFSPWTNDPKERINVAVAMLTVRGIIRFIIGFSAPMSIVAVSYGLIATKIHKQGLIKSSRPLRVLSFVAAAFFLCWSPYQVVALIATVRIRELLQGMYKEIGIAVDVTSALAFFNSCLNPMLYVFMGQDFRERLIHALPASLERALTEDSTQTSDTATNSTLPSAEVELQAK

[12] = test system: C5a and FMLP receptor-activated signal transduction pathways; settings: background statement, no reference given; cited from earlier work
C5aR in HepG2 cells = settings: cited from earlier work
human endothelial cells = settings: cited from earlier work
[13] = test system: vascular tissue, smooth muscle, mast cells; settings: cited from earlier work
[14] = HepG2, 37°C, 10 h, serum-free, C5a or FMLP 1 and 10 nM, Fig. 5
[15] = HepG2, 6 h, 37°C, 1 and 10 nM, Fig. 7
[16] = HepG2, 10 h, IL-1β 10 ng/ml + IL-6 10 ng/ml as positive control, Fig. 5

IL-6: prototype acute phase cytokine IL-6
changes in expression of acute phase genes (HepG2 cells): changes in expression of at least several if not many acute phase genes | effect on alpha1-ACT synthesis at lower doses [1]: con- centration dependent at lower doses | concentration of maximal effect on alpha1-ACT synthesis ([2]; Fig. 9 right): 0.2 /xg/ml | effect on alpha1-ACT synthesis ([2]; IL-6, several concentrations from 0.2 μg/ml, Fig. 9 right): increase

IL-I~: cytokine (interleukin-1 beta; scan error)
changes in expression of acute phase genes (HepG2 cells): changes in expression of at least several if not many acute phase genes

formyl-methionyl-leucyl-phenylalanine [FMLP, reference compound]
effect on C5 synthesis [3]: no effect | time at which decrease in albumin synthesis becomes evident ([4]; HepG2, 37°C): 6 h | effect on albumin synthesis [4, 14]: concentration-dependent decreases in synthesis of albumin | effect on albumin synthesis [4, 15]: decreases | concentration at which effect on albumin biosynthesis was first evident ([4]; HepG2, 10 h, Fig. 5): 1 nM | magnitude of effect on albumin synthesis vs combination of IL-1β and IL-6 [4, 16]: less than but comparable | effect on transferrin synthesis [5]: decreases | effect on complement Bf synthesis [6]: increases | effect on fibrinogen and C4 synthesis [7]: minimally and inconsistently increased | alpha1-ACT synthesis at higher (supersaturating) concentrations ([2]; FMLP above 20 nM, Fig. 9 left): returns to control levels | effect on alpha1-ACT synthesis ([2]; 1 and 10 nM, Fig. 7): increases | time at which increase in C3 synthesis becomes evident [8]: 6 h | effect on C3 synthesis [8]: increases | magnitude of effect on C3 synthesis vs combined effect of IL-1β and IL-6 [8, 16]: less than but comparable in magnitude | induction of serum amyloid A or C-reactive protein synthesis [9]: no evidence for induc- tion | lowest concentration with evident effect on synthesis of acute phase proteins ([10]; abstract): 1 nM | effect on C3 and albumin synthesis at higher concentrations [10]: dissipation of the effect | effect on neutrophil chemotaxis at supersaturating concentrations (neutrophils): abrogated at supersaturating concentra- tions | neutrophil program activated (neutrophils): directed cell migration, release of active oxy- gen intermediates, and release of proteolytic and phlogistic granular contents | effect on alpha1-AT synthesis [11]: no effect

formylNLe-Leu-Phe-NLe-Tyr-Lys [radioiodinated FMLP analogue]
binding of radioiodinated FMLP analogue to HepG2 cells (FMLPR in HepG2 cells; HepG2, 2 h at 4°C, Fig. 3A): specific and saturable binding | plasma membrane receptors per cell (R) (FMLPR in HepG2 cells; Scatchard plot, HepG2, 2 h at 4°C): ~6,000 plasma membrane receptors per cell | Kd (FMLPR in HepG2 cells; Scatchard plot, HepG2 monolayers, 2 h at 4°C, DMEM, 10 mM Hepes, pH 7.2, 1 mg/ml BSA, 0.05% Tween 80, nonspecific: 200-fold (Fig. 3: 250-fold) molar excess unlabeled FMLP, gamma counting): ~2.47 nM

leukemia inhibitory factor: cytokine
changes in expression of acute phase genes (HepG2 cells): changes in expression of at least several if not many acute phase genes

pertussis toxin
inhibition of C5a/FMLP receptor signal transduction [12]: is inhibited by pertussis toxin

B1: oncostain M: cytokine (protein, UniProt P13725 26-221, looked up)
Oncostatin-M: AAIGSCSKEYRVLLGQLQKQTDLMQDTSRLLDPYIRIQGLDVPKLREHCRERPGAFPSEETLRGLGRRGFLQTLNATLGCVLHRLADLEQRLPKAQDLERSGLNIEDLEKLQMARPNILGLRNNIYCMAQLLDNSDTAEPTKAGRGASQPPTPTPASDAFQRKLEGCRFLHGYHRFMHSVGRVFSKWGESPNRSRR
changes in expression of acute phase genes (HepG2 cells): changes in expression of at least several if not many acute phase genes

B2: IL-11: cytokine (protein, UniProt P20809 22-199, looked up)
Interleukin-11: PGPPPGPPRVSPDPRAELDSTVLLTRSLLADTRQLAAQLRDKFPADGDHNLDSLPTLAMSAGALGALQLPGVLTRLRADLLSYLRHVQWLRRAGGSSLKTLEPELGTLQARLDRLLRRLQLLMSRLALPQPPPDPPAPPLAPPSSAWGGIRAAHAILGGLHLTLDWAVRGLLLLKTRL
changes in expression of acute phase genes (HepG2 cells): changes in expression of at least several if not many acute phase genes

B3: IL-lc~: cytokine (interleukin-1 alpha; scan error) (protein, UniProt P01583 113-271, looked up)
Interleukin-1 alpha: SAPFSFLSNVKYNFMRIIKYEFILNDALNQSIIRANDQYLTAAALHNLDEAVKFDMGAYKSSKDDAKITVILRISKTQLYVTAQDEDQPVLLKEMPEIPKTITGSETNLLFFWETHGTKNYFTSVAHPNLFIATKQDYWVCLAGGPPSITDFQILENQA
changes in expression of acute phase genes (HepG2 cells): changes in expression of at least several if not many acute phase genes

B4: C5a: 11,200-D cationic glycopeptide from the first 74 residues of the C5 alpha chain; recombinant human C5a (Sigma) used (protein, UniProt P01031 678-751, looked up)
C5a anaphylatoxin: TLQKKIEEIAAKYKHSVVKKCCYDGACVNNDETCEQRAARISLGPRCIKAFTECCVVASQLRANISHKDMQLGR
modifications: C5a anaphylatoxin
effect on C5 synthesis [3]: no effect | time at which decrease in albumin synthesis becomes evident ([4]; HepG2, 37°C): 6 h | effect on albumin synthesis [4, 14]: concentration-dependent decreases in synthesis of albumin | effect on albumin synthesis [4, 15]: decreases | effect on transferrin synthesis [5]: decreases | inhibition of binding of 125I-C5a to HepG2 cells (C5aR in HepG2 cells): inhibit binding | binding to human endothelial cells (human endothelial cells): binds to human endothelial cells | effect on complement Bf synthesis [6]: increases | effect on fibrinogen and C4 synthesis [7]: minimally and inconsistently increased | effect on alpha1-ACT synthesis ([2]; 1 and 10 nM, Fig. 7): increases | time at which increase in C3 synthesis becomes evident [8]: 6 h | effect on C3 synthesis [8]: increases | induction of serum amyloid A or C-reactive protein synthesis [9]: no evidence for induc- tion | effect on C3 and albumin synthesis at higher concentrations [10]: dissipation of the effect | histamine release from mast cells [13]: releaseofhistamine from mast cells | smooth muscle contraction [13]: smooth muscle contraction | vascular permeability [13]: increasedvascularpermeability | vasodilatation [13]: vasodilatation | effect on neutrophil chemotaxis at supersaturating concentrations (neutrophils): abrogated at supersaturating concentra- tions | neutrophil activities mediated (neutrophils): chemotactic ac- tivity, phagocytic activity, release of active oxygen inter- mediates, release of granular enzymes, and increase in adhesion/aggregationproperties in neutrophils | effect on alpha1-AT synthesis [11]: no effect

Source: PMC2192098 (The Journal of Experimental Medicine, 1995)
